Key:
HLA-DR4Dw4 = target: T1, HLA-DR4Dw4 (Homo sapiens, UniProt P01903+P01911, A100K/A169T/F76Y/I96L/K127E/L162R/M171V/N62H/P40V/Q125Y/R42H/S133A/S149N/S66Y/V115G/V209L/W38E); experiment: Test A: purified HLA-DR peptide in vitro binding assay; conditions: purified HLA-DR4Dw4, biotin-FHA307-320
T1 construct: a cDNA encoding the β chain is cloned into the transfer vector pAcUW1; made in house; host or cells: Sf21 insect cells, double-recombinant baculovirus
Method: Test A: Purified HLA-DR peptide in vitro binding assay. […]. At the end of the incubation period 100 μl of the incubate is transferred to Enzyme Linked lmmunoSorbant Assay (ELISA) plates (Nunc) previously coated with an anti-MHC antibody (L243--American Type Culture Collection (ATCC) HB55 --as described in Lampson and Levy (1980) J. Immunol. 125, 293-299) at a concentration of 10 μg/ml for 1 hour at room temperature and blocked thereafter for 1 hour with 1% bovine serum albumin (BSA) in PBS and 0.05% Tween 20. After a further 1 hour period the unbound peptide is washed away and a 1/4,000 dilution of streptavidin peroxidase (Sigma) in PBS with 0.01% of a suitable detergent such as NP40 (Sigma) added for 2 hours at room temperature. After further washing, tetramethylbenzidene (TMB) substrate solution (1 TMB tablet (Sigma) in 10 mIs of 0.1 M citrate/acetate buffer, pH 6.0 with 36 μl urea hydrogen peroxide (UHPO) (Fluka)) is added to each of the plates. The reaction is stopped by adding 2M sulphuric acid (10 μl per well) and the absorbance read at 450 nm to quantify the amount of peptide bound. The inhibitory activity of peptides is obtained by plotting absorbance against concentration.
The purified HLA-DR4Dw4 may be obtained as follows:
(i) Expression of HLA-DR in the Baculovirus System
The expression of recombinant proteins in insect cells from baculovirus vectors is an established procedure to obtain high yields of recombinant protein [Luckow, V A & Summers, M D, 1988, Biotechnology, 6, 47-551]. To enable the expression of the heterodimeric HLA-DR, eg. HLA-DR4Dw4, from a single recombinant baculovirus vector (as opposed to having separate recombinant viruses for the α and β chains and then doing a co-infection), a double-recombinant baculovirus is constructed which carries both the α and β chains.
A cDNA encoding the sequence of the α polypeptide is cloned into the transfer vector pacYM1 [Matsuura, Y; Possee, R D; Overton, H A & Bishop, D H L, 1987, J. Gen. […] The molecular genetic techniques used to construct the recombinant vectors are likewise readily available in the literature and are most fully described by Sambrook, J; Fritsch, E F & Maniatis T, (1989) [Molecular Cloning. […]
To create the double-recombinant baculovirus, a cDNA encoding the β chain is cloned into the transfer vector pAcUW1 [Weyer, U; Knight, S & Possee, R D, 1990, J. Gen. […] Double-recombinant viruses are detected by spotting insect cells, infected with randomly picked viruses from the transfection, onto membranes and reacting them with a monoclonal antibody, e.g. L243, which specifically recognises the HLA-DR heterodimer. Binding of the antibody to Sf21 insect cells is detected using standard flow cytometry techniques, readily available in the literature. […]

BALB/C mice = experiment: Test C: peptide stimulated DTH (delayed type hypersensitivity) in BALB/C mice; format: in vivo; conditions: DTH to ovalbumin, 3-day osmotic mini-pumps
Method: Test C: Peptide stimulated DTH (delayed type hypersensitivity) in BALB/C mice. […] Balbic female mice (18-20g), 5 per group, were immunised sub-cutaneously on the flank with 0.1 ml of an emulsion of ovalbumin (Sigma) (2mg/ml in saline) mixed 1:1 (v/v) with complete Freunds adjurant (Sigma). Seven days later footpad thickness was detemined using a dual caliper micrometer followed by a challenge in one hind footpad with a 30 μl sub-plantar injection of 1% heat-aggregated ovalbumin protein in saline. Twenty-four hours after antigen challenge, footpads were measured and the DTH response calculated as the percentage increase in footpad thickness in the injected footpad compared to contralateral control. Inhibitors were adminstered by 3-day osmotic mini-pumps (Alzet) implanted 24 hours prior to antigen challenge at doses ranging from 10 mg/kg/day to 0.1 μg/kg/day. The degree of inhibition was calculated by substracting the value for swelling of inhibitor treated footpads from that of the vehicle dosed controls, dividing by the control value and multiplying by 100%.

[1] = format: physicochemical; conditions: for aqueous stability at pH3: pH 3
Method: A typical procedure for measuring the stability of a peptide derivative of the present invention is as follows, in which, to minimize microbial contamination and degradation, all equipment that is used to prepare peptide solutions is sterilized in an autoclave and all material transfers carried out in a Class II laminar flow cabinet. Approximately 20 ml of Mcllvaine's citric acid-phosphate buffer solution at pH 3 or 7.6 containing 0.02% sodium azide is filtered into a 50 mL bottle using a sterile 0.22 μm filter unit and a 20 ml syringe. Approximately 1.2 mg of peptide is accurately weighed in a capped vial. Using a sterile pipette tip, sufficient buffer solution is added to the peptide in the vial to give a peptide concentration of 0.1 mg/ml. The vial is capped and shaken to dissolve the peptide. Using a sterile pipette tip, aliquots of approximately 1 ml of the peptide solution are transferred to 10 HPLC vials, which are then capped. 5 vials are stored at -18 and 37° C. The area of the peptide peak for the solution is determined by HPLC using appropriate standards initially and after storage at -18 and 37° C. for 1, 2, 3 and 4 weeks, using a fresh vial at each time point with duplicate sample injections. The percentage of peptide remaining after storage at 37° C. at each time point is determined from the ratio of the area of the peptide peak at each time point to the initial area. Preferred peptide derivatives of the present invention have greater than 90%, and preferably greater than 95%, of peptide remaining after storage at 37° C. at both pH 3 and 7.6.

Substance | concentration showing significant binding to HLA-DR4Dw4 in Test A (HLA-DR4Dw4) | dose at which active in Test C (BALB/C mice) | aqueous stability at pH3 [1] | aqueous stability at pH 7.6 [1]
Phv-Ala-Arg-Ala-IIb-Ala-Arg-Ala-Papa-NH2 [Example 23] | < 0.1 µM | < 0.1 mg/kg/day | good aqueous stability | good aqueous stability
Phv-Arg-Ala-Ala-Ala-Val-IIb-Ala-Pip-NH2 [Example 5] | < 0.1 µM | < 0.1 mg/kg/day | good aqueous stability | good aqueous stability
Phv-Gap(Me)4 -Ala-Ala-Ala-Thr-IIb-Ala-Papa-NH2 [Example 16] | < 0.1 µM | < 0.1 mg/kg/day | good aqueous stability | good aqueous stability

Source: patent US6087336A, “Peptide derivatives useful in treating autoimmune diseases” (Zeneca Limited, priority 1996, dated 2000)
